Laboratory results taken from PubChem BioAssay (NCI).
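The compound was tested at five concentrations on cells cultured in 96-well plates, with a 48-hour exposure period. TGI: concentration producing complete growth inhibition.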

Key:
Assay in all cases: NCI anticancer screen, dose series, 48 h
[1] = test system: A549 NSCLC
[2] = test system: NCI-H226 lung
[3] = test system: SF-268 CNS
[4] = test system: HOP-62 NSCLC
[5] = test system: DMS 114 small cell lung
[6] = test system: CAKI-1 renal
[7] = test system: KM12 colon
[8] = test system: 786-0 renal
[9] = test system: M14 melanoma
[10] = test system: LOX IMVI melanoma
[11] = test system: EKVX NSCLC
[12] = test system: HOP-18 NSCLC
[13] = test system: NCI-H460 lung
[14] = test system: UACC-62 melanoma
[15] = test system: MOLT-4 leukemia
[16] = test system: SNB-75 CNS
[17] = test system: U251 CNS
[18] = test system: NCI-H522 lung
[19] = test system: SK-MEL-2 melanoma
[20] = test system: DMS 273 small cell lung
[21] = test system: KM20L2 colon
[22] = test system: OVCAR-4 ovarian
[23] = test system: A498 renal
[24] = test system: SF-295 CNS
[25] = test system: SNB-78 CNS
[26] = test system: HL-60(TB) leukemia
[27] = test system: SK-OV-3 ovarian
[28] = test system: SW-620 colon
[29] = test system: SK-MEL-5 melanoma
[30] = test system: UO-31 renal
[31] = test system: HCT-116 colon
[32] = test system: CCRF-CEM leukemia
[33] = test system: TK-10 renal
[34] = test system: OVCAR-3 ovarian
[35] = test system: DLD-1 colon
[36] = test system: NCI-H23 lung
[37] = test system: HOP-92 NSCLC
[38] = test system: IGROV1 ovarian
[39] = test system: COLO 205 colon
[40] = test system: SF-539 CNS
[41] = test system: ACHN renal
[42] = test system: SN12C renal
[43] = test system: OVCAR-5 ovarian
[44] = test system: M19-MEL melanoma
[45] = test system: SNB-19 CNS
[46] = test system: HCC-2998 colon
[47] = test system: LXFL 529 NSCLC
[48] = test system: MALME-3M melanoma
[49] = test system: HCT-15 colon
[50] = test system: RPMI-8226 leukemia
[51] = test system: SK-MEL-28 melanoma
[52] = test system: RXF 393 renal
[53] = test system: K-562 leukemia
[54] = test system: UACC-257 melanoma
[55] = test system: OVCAR-8 ovarian
[56] = test system: HT29 colon

**Q.** With COC1(C)C(=O)N2C1N(C(=O)OC(C)(C)C)CC2(C)C (stereo unspecified) as the molecule, how does the TGI [1] read?
**A.** > 100 µM

**Q.** What about the TGI [2] of the same molecule?
**A.** > 100 µM

**Q.** What about the TGI [3] of the same molecule?
**A.** > 100 µM

**Q.** And the TGI [4]?
**A.** > 100 µM

**Q.** What about the TGI [5] of the same molecule?
**A.** > 100 µM

**Q.** And the TGI [6]?
**A.** > 100 µM

**Q.** And the TGI [7]?
**A.** > 100 µM

**Q.** What about the TGI [8] of the same molecule?
**A.** > 100 µM

**Q.** What about the TGI [9] of the same molecule?
**A.** > 100 µM

**Q.** What about the TGI [10] of the same molecule?
**A.** 53.1 µM

**Q.** And the TGI [11]?
**A.** > 100 µM

**Q.** What about the TGI [12] of the same molecule?
**A.** > 100 µM

**Q.** And the TGI [13]?
**A.** > 100 µM

**Q.** And the TGI [14]?
**A.** > 100 µM

**Q.** What about the TGI [15] of the same molecule?
**A.** > 100 µM

**Q.** What about the TGI [16] of the same molecule?
**A.** > 100 µM

**Q.** What about the TGI [17] of the same molecule?
**A.** > 100 µM

**Q.** And the TGI [18]?
**A.** > 100 µM

**Q.** What about the TGI [19] of the same molecule?
**A.** > 100 µM

**Q.** What about the TGI [20] of the same molecule?
**A.** > 100 µM

**Q.** What about the TGI [21] of the same molecule?
**A.** > 100 µM

**Q.** And the TGI [22]?
**A.** > 100 µM

**Q.** And the TGI [23]?
**A.** > 100 µM

**Q.** What about the TGI [24] of the same molecule?
**A.** > 100 µM

**Q.** And the TGI [25]?
**A.** > 100 µM

**Q.** And the TGI [26]?
**A.** > 100 µM

**Q.** What about the TGI [27] of the same molecule?
**A.** > 100 µM

**Q.** What about the TGI [28] of the same molecule?
**A.** 37.5 µM

**Q.** What about the TGI [29] of the same molecule?
**A.** > 100 µM

**Q.** And the TGI [30]?
**A.** > 100 µM

**Q.** And the TGI [31]?
**A.** > 100 µM

**Q.** What about the TGI [32] of the same molecule?
**A.** > 100 µM

**Q.** And the TGI [33]?
**A.** > 100 µM

**Q.** And the TGI [34]?
**A.** > 100 µM

**Q.** And the TGI [35]?
**A.** > 100 µM

**Q.** And the TGI [36]?
**A.** > 100 µM

**Q.** And the TGI [37]?
**A.** > 100 µM

**Q.** And the TGI [38]?
**A.** > 100 µM

**Q.** And the TGI [39]?
**A.** > 100 µM

**Q.** And the TGI [40]?
**A.** > 100 µM

**Q.** And the TGI [41]?
**A.** > 100 µM

**Q.** What about the TGI [42] of the same molecule?
**A.** > 100 µM

**Q.** What about the TGI [43] of the same molecule?
**A.** > 100 µM

**Q.** And the TGI [44]?
**A.** > 100 µM

**Q.** What about the TGI [45] of the same molecule?
**A.** > 100 µM

**Q.** And the TGI [46]?
**A.** > 100 µM

**Q.** And the TGI [47]?
**A.** > 100 µM

**Q.** What about the TGI [48] of the same molecule?
**A.** > 100 µM

**Q.** And the TGI [49]?
**A.** > 100 µM

**Q.** What about the TGI [50] of the same molecule?
**A.** > 100 µM

**Q.** And the TGI [51]?
**A.** > 100 µM

**Q.** And the TGI [52]?
**A.** > 100 µM

**Q.** What about the TGI [53] of the same molecule?
**A.** > 100 µM

**Q.** What about the TGI [54] of the same molecule?
**A.** > 100 µM

**Q.** What about the TGI [55] of the same molecule?
**A.** > 100 µM

**Q.** And the TGI [56]?
**A.** > 100 µM
